{"source": "patent US12162858B2", "about": "“Quinoline derivatives as inhibitors of AXL/MER RTK and CSF1R” (QURIENT CO., LTD., priority 2018, dated 2024)", "key": {"Axl (Ba/F3 cells)": {"biological_target": "T1, Axl (Ba/F3 cells) (Homo sapiens, UniProt P30530)", "T1 sequence (P30530 1-894)": "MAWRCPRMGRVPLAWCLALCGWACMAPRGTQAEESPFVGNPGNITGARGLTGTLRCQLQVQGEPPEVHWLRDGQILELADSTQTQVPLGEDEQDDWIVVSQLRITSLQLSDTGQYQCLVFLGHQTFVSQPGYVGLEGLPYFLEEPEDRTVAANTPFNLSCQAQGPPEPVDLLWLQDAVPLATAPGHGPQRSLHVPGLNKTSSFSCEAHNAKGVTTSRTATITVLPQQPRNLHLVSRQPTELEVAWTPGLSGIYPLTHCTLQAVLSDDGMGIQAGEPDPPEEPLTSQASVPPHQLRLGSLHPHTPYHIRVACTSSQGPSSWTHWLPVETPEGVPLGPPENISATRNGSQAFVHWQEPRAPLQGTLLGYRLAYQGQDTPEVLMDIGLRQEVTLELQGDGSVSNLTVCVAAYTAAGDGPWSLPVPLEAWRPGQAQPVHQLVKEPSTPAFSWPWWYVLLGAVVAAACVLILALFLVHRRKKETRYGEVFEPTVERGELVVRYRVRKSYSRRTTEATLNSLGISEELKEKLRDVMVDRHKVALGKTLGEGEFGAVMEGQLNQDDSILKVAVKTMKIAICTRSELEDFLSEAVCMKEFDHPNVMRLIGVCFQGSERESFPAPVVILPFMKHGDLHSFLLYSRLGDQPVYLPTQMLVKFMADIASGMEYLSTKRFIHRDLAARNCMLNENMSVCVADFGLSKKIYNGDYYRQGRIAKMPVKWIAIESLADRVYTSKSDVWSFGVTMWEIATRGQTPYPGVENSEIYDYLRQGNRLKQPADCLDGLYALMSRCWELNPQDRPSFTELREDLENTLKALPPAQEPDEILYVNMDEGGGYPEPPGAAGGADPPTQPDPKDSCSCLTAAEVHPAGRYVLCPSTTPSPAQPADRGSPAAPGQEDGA", "assay": "BaF3 viability assay, Axl-dependent cells", "format": "cell-based", "conditions": "read-out: Cellular Axl activity by Ba/F3 assay (IC50)", "source_text": "(§1) In this system, IL-3-dependent Ba/F3 cells are modified to express an activated recombinant kinase (in the present case Axl, Mer and CSF1R). Following removal of IL-3, the modified cells are dependent on the activity of the recombinant kinase for survival and proliferation. Inhibition of such kinase(s) through test compounds reduces survival and proliferation of the cells.\n(§2) Cell lines were maintained in growth media (GM) consisting of RPMI 1640 supplemented with 10% FBS. Cells in logarithmic-phase growth were harvested and 5,000 cells were distributed into each well of a 384-well plate in 50 μl GM. Parental cells (or experimental assays where specified) were further supplemented with 2 ng/ml IL-3 to support cell growth and survival. Fifty nanoliters of the indicated reference standard or experimental compound were added to appropriate wells (in duplicate) and the cells were cultured for 48 h at 37° C./5% CO2. Viability was determined by adding 10 μl Cell Titer Glo and measuring luminescence, which is reported as relative light units (RLU) measured in counts per second. The following calculations and formulas are used for data analysis using GraphPad Prism software: The curve fitting was made using the Dose response curves-Inhibition."}, "Mer (Ba/F3 cells)": {"biological_target": "T2, Mer (Ba/F3 cells) (Homo sapiens, UniProt Q12866)", "T2 sequence (Q12866 1-999)": "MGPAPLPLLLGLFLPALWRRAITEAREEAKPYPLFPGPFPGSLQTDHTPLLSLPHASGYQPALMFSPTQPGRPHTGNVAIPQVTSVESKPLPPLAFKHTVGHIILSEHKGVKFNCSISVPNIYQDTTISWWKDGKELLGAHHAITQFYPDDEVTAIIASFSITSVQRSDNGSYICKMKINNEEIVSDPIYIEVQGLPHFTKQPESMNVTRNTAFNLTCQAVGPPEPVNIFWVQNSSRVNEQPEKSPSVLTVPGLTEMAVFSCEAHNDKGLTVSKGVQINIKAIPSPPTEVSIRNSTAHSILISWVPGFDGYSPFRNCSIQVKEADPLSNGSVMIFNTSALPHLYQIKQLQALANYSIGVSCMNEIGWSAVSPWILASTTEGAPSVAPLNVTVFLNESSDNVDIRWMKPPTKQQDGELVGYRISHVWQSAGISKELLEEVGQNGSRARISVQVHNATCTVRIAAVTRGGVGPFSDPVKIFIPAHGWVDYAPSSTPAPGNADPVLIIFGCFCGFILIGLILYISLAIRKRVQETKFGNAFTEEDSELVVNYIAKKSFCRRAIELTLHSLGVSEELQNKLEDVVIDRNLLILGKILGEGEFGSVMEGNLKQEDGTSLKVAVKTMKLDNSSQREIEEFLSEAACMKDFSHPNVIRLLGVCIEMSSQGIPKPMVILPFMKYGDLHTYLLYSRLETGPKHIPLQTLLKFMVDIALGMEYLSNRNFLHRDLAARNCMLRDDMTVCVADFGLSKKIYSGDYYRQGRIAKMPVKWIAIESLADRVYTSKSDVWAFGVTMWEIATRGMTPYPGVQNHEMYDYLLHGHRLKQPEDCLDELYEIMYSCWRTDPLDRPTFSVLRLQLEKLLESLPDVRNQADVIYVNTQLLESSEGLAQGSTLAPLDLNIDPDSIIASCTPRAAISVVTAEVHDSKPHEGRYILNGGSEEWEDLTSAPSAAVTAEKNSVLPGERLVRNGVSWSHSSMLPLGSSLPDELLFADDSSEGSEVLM", "assay": "BaF3 viability assay, Mer-dependent cells", "format": "cell-based", "conditions": "read-out: Cellular Mer activity by Ba/F3 assay (IC50)", "source_text": "as §1, §2"}}}
{"smiles": "COc1cc2nccc(Oc3ccc(NC(=O)c4nn(C5CC5)cc4OCC(F)(F)F)nc3)c2cc1OC", "note": "[Compound 5]", "values": [{"measurement": "GI50", "setting": "Axl (Ba/F3 cells)", "value": "< 1000", "unit": "nM"}, {"measurement": "GI50", "setting": "Mer (Ba/F3 cells)", "value": "< 1000", "unit": "nM"}]}
